ChEMBL document CHEMBL5365414, “Synthesis and activity of β-carboline antimalarials targeting the Plasmodium falciparum heat shock 90 protein” (Bioorg Med Chem Lett, 2023)

What was measured:
Plasmodium berghei [1] = assay: Antimalarial activity against luciferase expressing liver stage Plasmodium berghei ANKA infected in human Huh-7 cells assessed as reduction in parasite load at 10 uM measured after 44 hrs post infection by Bright-glo reagent based luciferase reporter assay relative to control; assay type: functional; design: scale not given: the % may be the effect or the level left
Huh-7 [2] = assay: Cytotoxicity against human Huh-7 cells infected with luciferase expressing liver stage Plasmodium berghei ANKA assessed as reduction in cell viability at 10 uM measured after 44 hrs post infection by Cell-TiterFluor viability assay relative to control; assay type: toxicity, cell-based; conditions: huh-7, 44 h
Plasmodium berghei [3] = assay: Antimalarial activity against luciferase expressing liver stage Plasmodium berghei ANKA infected in human Huh-7 cells assessed as reduction in parasite load measured after 44 hrs post infection by Bright-glo reagent based luciferase reporter assay; assay type: functional, organism-based; conditions: Huh-7, 44 h
Huh-7 [4] = assay: Cytotoxicity against human Huh-7 cells infected with luciferase expressing liver stage Plasmodium berghei ANKA assessed as reduction in cell viability upto 100 uM measured after 44 hrs post infection by Cell-TiterFluor viability assay; assay type: toxicity, cell-based; conditions: huh-7, 44 h
Huh-7 [5] = assay: Cytotoxicity against human Huh-7 cells infected with luciferase expressing liver stage Plasmodium berghei ANKA assessed as reduction in cell viability at high doses measured after 44 hrs post infection by Cell-TiterFluor viability assay; assay type: toxicity, cell-based; conditions: huh-7, 44 h
HSP90 = target: T1, HSP90 (Plasmodium falciparum 3D7, UniProt Q8IL32); assay: Inhibition of recombinant his-tagged Plasmodium falciparum Hsp90 GHKL domain expressed in Escherichia coli BL21 (DE3) cells by bis-ANS binding assay
T1 sequence (Q8IL32 whole entry): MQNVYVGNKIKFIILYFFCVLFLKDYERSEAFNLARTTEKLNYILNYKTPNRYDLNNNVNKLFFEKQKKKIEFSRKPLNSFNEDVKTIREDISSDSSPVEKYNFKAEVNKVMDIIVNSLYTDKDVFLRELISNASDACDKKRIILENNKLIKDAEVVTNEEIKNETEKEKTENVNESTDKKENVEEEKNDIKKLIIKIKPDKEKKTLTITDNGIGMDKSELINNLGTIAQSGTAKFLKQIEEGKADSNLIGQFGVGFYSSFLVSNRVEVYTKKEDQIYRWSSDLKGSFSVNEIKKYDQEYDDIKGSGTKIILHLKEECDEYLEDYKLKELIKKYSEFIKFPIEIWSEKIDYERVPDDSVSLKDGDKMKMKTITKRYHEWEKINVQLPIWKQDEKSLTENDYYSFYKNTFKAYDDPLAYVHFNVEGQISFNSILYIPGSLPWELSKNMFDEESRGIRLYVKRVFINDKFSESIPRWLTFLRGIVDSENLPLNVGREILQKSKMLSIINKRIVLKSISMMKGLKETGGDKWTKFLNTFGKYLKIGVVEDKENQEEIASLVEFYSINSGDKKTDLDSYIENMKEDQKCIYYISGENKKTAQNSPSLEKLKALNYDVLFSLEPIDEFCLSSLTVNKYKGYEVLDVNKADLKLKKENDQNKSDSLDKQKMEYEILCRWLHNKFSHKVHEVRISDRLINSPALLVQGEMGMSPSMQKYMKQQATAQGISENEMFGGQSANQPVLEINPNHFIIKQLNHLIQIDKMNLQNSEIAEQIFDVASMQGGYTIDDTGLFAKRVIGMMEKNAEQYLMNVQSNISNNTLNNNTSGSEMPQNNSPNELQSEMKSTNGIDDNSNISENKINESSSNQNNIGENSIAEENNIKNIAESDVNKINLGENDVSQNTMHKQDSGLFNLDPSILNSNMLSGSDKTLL

| Compound | Activity (Plasmodium berghei [1]) [%] | also measured |
| --- | --- | --- |
| COc1ccc2c(c1)[nH]c1c(C3CC3)nccc12 | >50 |  |
| COc1ccc2[nH]c3c(-c4ccccc4)nccc3c2c1 | >50 |  |
| COc1ccc(-c2nccc3c2[nH]c2ccccc23)cc1 | >50 |  |
| c1ccc2c(c1)[nH]c1c(C3CC3)nccc12 | >50 |  |
| COc1cccc(-c2nccc3c2[nH]c2ccc(Cl)cc23)c1 | >50 | Activity (Huh-7 [2]): 78% |
| c1cncc(-c2nccc3c2[nH]c2ccccc23)c1 | >50 |  |
| Cc1cccc(-c2nccc3c2[nH]c2ccc(Cl)cc23)c1 | 41 |  |
| Clc1cccc(-c2nccc3c2[nH]c2ccc(Cl)cc23)c1 | >50 |  |
| c1ccc2c(c1)[nH]c1c(-c3ccsc3)nccc12 | >50 | Activity (Huh-7 [2]): 78% |
| c1ccc2c(c1)[nH]c1cnccc12 [NORHARMANE] | >50 |  |
| Clc1ccc2[nH]c3c(-c4ccccc4)nccc3c2c1 | >50 |  |
| FC(F)(F)c1ccc(-c2nccc3c2[nH]c2ccccc23)cc1 | 5.8 | EC50 (Plasmodium berghei [3]): 5.2 µM; Activity (Huh-7 [4]): Non-Toxic |
| FC(F)(F)c1cccc(-c2nccc3c2[nH]c2ccc(Cl)cc23)c1 | 15 | Activity (Huh-7 [5]): Toxic; EC50 (Plasmodium berghei [3]): 5.2 µM |
| N#Cc1ccc(-c2nccc3c2[nH]c2ccccc23)cc1 | >50 |  |
| Clc1cccc(-c2nccc3c2[nH]c2ccccc23)c1 | >50 |  |
| CC1NCCc2c1[nH]c1ccc(Cl)cc21 (stereo not drawn) |  | IC50 (HSP90): 12.2 µM |
| O=C1C(O)=C([C@H]2CC[C@H](c3ccc(Cl)cc3)CC2)C(=O)c2ccccc21 [ATOVAQUONE] |  | EC50 (Plasmodium berghei [3]): 0.01 µM |
